Drawing on US20130230469A1, “Oral Care Product and Methods of Use and Manufacture Thereof” (COLGATE-PALMOLIVE COMPANY, priority 2010, published 2013), this text covers microbial control and antimicrobial efficacy for three compounds.

The assay deals with bacteria/yeast and mold. As to the kind of experiment: Antimicrobial Preservation Effectiveness Test (micro robustness), double challenge test. The format is cell-based. Conditions: for microbial control: preservative in mouthwash formulation, separately or in combination. Here is the method: The Antimicrobial Preservation Effectiveness Test is used to determine the antimicrobial preservation effectiveness of water-based product formulations by means of a double challenge test. Products are developed to withstand microbial challenges introduced by normal consumer use. The test is run on an aged sample (13 weeks, 40° C.). The test uses two pools of microorganisms: bacteria/yeast and mold. The product is challenged at a 1% level at day 0 and at day 7. Reduction of the inoculum is monitored over a 28 day period. The following are the acceptance criteria for mouth wash formulas. • Bacteria and Yeast must show a 99.9% reduction (3 logs) of the bacterial inoculum as determined by plate count on day 7 following each inoculation. No increase after day 7 of the second inoculation and for the remainder of the test within normal variation of the data. • Mold must show a 90.0% reduction (1 log) of the mold inoculum as determined by the plate count on day 14 following the second inoculation (day 21). No increase from day 14 to day 21 of the second inoculation of the test within normal variation of the data.

As to `OCc1ccccc1` [Benzyl alcohol, benzyl alcohol], the microbial control entry was “acceptable microbial control”. Take `CCCCCCCC(=O)OCC(O)CO` (stereo not shown) [Lexgard/gmcy, glycerol monocaprylate]: the microbial control entry was “acceptable microbial control”.

`Cn1sccc1=O` [MIT, methylisothiazolinone]: the microbial control result is on record as “acceptable microbial control”. Besides, the antimicrobial efficacy entry (amount reduced to 0.001%) is given as “retaining antimicrobial efficacy”.
